In ChEMBL document CHEMBL4823243, “Synergistic induction of apoptosis in resistant head and neck carcinoma and leukemia by alkoxyamide-based histone deacetylase inhibitors” (Eur J Med Chem, 2021):
Activity calls are given as the source filed them. The rule behind the calls is not given here.

Key:
[1] = molecular target: T1, Histone deacetylase (Homo sapiens) (UniProt Q13547+O15379+Q9UBN7+Q92769+Q9UQL6+Q8WUI4+Q9BY41+Q96DB2+P56524+Q9UKV0+Q969S8); assay: Inhibition of HDAC in human Cal27CisR cells assessed as combination index at 0.3 uM measured in presence of 20 uM cDDP by MTT-based Chou-Talalay method; type: cell-based
[2] = molecular target: T1, Histone deacetylase (Homo sapiens); assay: Inhibition of HDAC in human CAL-27 cells assessed as combination index at 0.35 uM measured in presence of 10 uM cDDP by MTT-based Chou-Talalay method; type: cell-based
[3] = molecular target: T1, Histone deacetylase (Homo sapiens); assay: Inhibition of HDAC in human CAL-27 cells assessed as combination index at 0.35 uM measured in presence of 2 uM cDDP by MTT-based Chou-Talalay method; type: cell-based
[4] = molecular target: T1, Histone deacetylase (Homo sapiens); assay: Inhibition of HDAC in human CAL-27 cells assessed as combination index at 0.35 uM measured in presence of 5 uM cDDP by MTT-based Chou-Talalay method; type: cell-based
[5] = molecular target: T1, Histone deacetylase (Homo sapiens); assay: Inhibition of HDAC in human Cal27CisR cells assessed as combination index at 0.5 uM measured in presence of 20 uM cDDP by MTT-based Chou-Talalay method; type: cell-based
[6] = molecular target: T1, Histone deacetylase (Homo sapiens); assay: Inhibition of HDAC in human CAL-27 cells assessed as combination index at 0.25 uM measured in presence of 5 uM cDDP by MTT-based Chou-Talalay method; type: cell-based
[7] = molecular target: T1, Histone deacetylase (Homo sapiens); assay: Inhibition of HDAC in human Cal27CisR cells assessed as combination index at 0.4 uM measured in presence of 50 uM cDDP by MTT-based Chou-Talalay method; type: cell-based
CAL-27 [8] = assay: Induction of apoptosis in human CAL-27 cells assessed as caspase 3 activation at 0.3 uM pretreated for 24 hrs followed by cisplatin treatment and further incubated for 18 hrs by Caspase3/7 detection reagent based assay; type: functional, cell-based; conditions: time 42.0 hrs
HL-60 = assay: Antiproliferative activity against human HL-60 cells assessed as reduction in cell viability for 72 hrs by Celltitre-Glo luminescent assay; type: functional, cell-based; conditions: HL-60, 72 h
Cal27CisR = assay: Induction of apoptosis in human Cal27CisR cells assessed as caspase 3 activation at 0.3 uM pretreated for 24 hrs followed by cisplatin treatment and further incubated for 18 hrs by Caspase3/7 detection reagent based assay; type: functional, cell-based; conditions: time 42.0 hrs
[9] = molecular target: T1, Histone deacetylase (Homo sapiens); assay: Inhibition of HDAC in human Cal27CisR cells assessed as combination index at 0.2 uM measured in presence of 50 uM cDDP by MTT-based Chou-Talalay method; type: cell-based
[10] = molecular target: T1, Histone deacetylase (Homo sapiens); assay: Inhibition of HDAC in human Cal27CisR cells assessed as combination index at 0.3 uM measured in presence of 10 uM cDDP by MTT-based Chou-Talalay method; type: cell-based
[11] = molecular target: T1, Histone deacetylase (Homo sapiens); assay: Inhibition of HDAC in human CAL-27 cells assessed as combination index at 0.4 uM measured in presence of 5 uM cDDP by MTT-based Chou-Talalay method; type: cell-based
[12] = molecular target: T1, Histone deacetylase (Homo sapiens); assay: Inhibition of HDAC in human Cal27CisR cells assessed as combination index at 0.2 uM measured in presence of 10 uM cDDP by MTT-based Chou-Talalay method; type: cell-based
[13] = molecular target: T1, Histone deacetylase (Homo sapiens); assay: Inhibition of HDAC in human Cal27CisR cells assessed as combination index at 0.2 uM measured in presence of 20 uM cDDP by MTT-based Chou-Talalay method; type: cell-based
[14] = molecular target: T1, Histone deacetylase (Homo sapiens); assay: Inhibition of HDAC in human CAL-27 cells assessed as combination index at 0.2 uM measured in presence of 5 uM cDDP by MTT-based Chou-Talalay method; type: cell-based
Histone deacetylase [15] = assay: Inhibition of HDAC in human CAL-27 cells assessed as potentiation of cisplatin-induced cytotoxicity by measuring cisplatin IC50 at 0.3 to 0.5 uM pretreated for 48 hrs followed by cisplatin addition and measured after 72 hrs by MTT assay (reference value: 3.57 uM); type: cell-based
[16] = molecular target: T1, Histone deacetylase (Homo sapiens); assay: Inhibition of HDAC in human Cal27CisR cells assessed as potentiation of cisplatin-induced cytotoxicity by measuring fold reduction in cisplatin IC50 at 0.3 to 0.5 uM pretreated for 48 hrs followed by cisplatin addition and measured after 72 hrs by MTT assay relative to cisplatin alone; type: cell-based; conditions: dose 0.3-0.5 µM, time 120.0 hrs
[17] = molecular target: T1, Histone deacetylase (Homo sapiens); assay: Inhibition of HDAC in human CAL-27 cells assessed as combination index at 0.4 uM measured in presence of 10 uM cDDP by MTT-based Chou-Talalay method; type: cell-based
[18] = molecular target: T1, Histone deacetylase (Homo sapiens); assay: Inhibition of HDAC in human CAL-27 cells assessed as combination index at 0.3 uM measured in presence of 10 uM cDDP by MTT-based Chou-Talalay method; type: cell-based
[19] = molecular target: T1, Histone deacetylase (Homo sapiens); assay: Inhibition of HDAC in human CAL-27 cells assessed as combination index at 0.1 uM measured in presence of 10 uM cDDP by MTT-based Chou-Talalay method; type: cell-based
Histone deacetylase [20] = assay: Inhibition of HDAC in human Cal27CisR cells assessed as potentiation of cisplatin-induced cytotoxicity by measuring cisplatin IC50 at 0.3 to 0.5 uM pretreated for 48 hrs followed by cisplatin addition and measured after 72 hrs by MTT assay (reference value: 3.57 uM); type: cell-based
CAL-27 [21] = assay: Induction of apoptosis in cisplatin resistant human CAL-27 cells assessed as caspase 7 activation at 0.3 uM pretreated for 24 hrs followed by cisplatin treatment and further incubated for 18 hrs by Caspase3/7 detection reagent based assay; type: functional, cell-based; conditions: time 42.0 hrs
[22] = molecular target: T1, Histone deacetylase (Homo sapiens); assay: Inhibition of HDAC in human Cal27CisR cells assessed as combination index at 0.6 uM measured in presence of 10 uM cDDP by MTT-based Chou-Talalay method; type: cell-based
A2780 = assay: Antiproliferative activity against human A2780 cells assessed as reduction in cell viability after 72 hrs by MTT assay; type: functional, cell-based; conditions: A2780, 72 h
[23] = molecular target: T1, Histone deacetylase (Homo sapiens); assay: Inhibition of HDAC in human Cal27CisR cells assessed as combination index at 0.4 uM measured in presence of 10 uM cDDP by MTT-based Chou-Talalay method; type: cell-based
CAL-27 [24] = assay: Antiproliferative activity against human CAL-27 cells assessed as reduction in cell viability after 72 hrs by MTT assay; type: functional, cell-based; conditions: CAL-27, 72 h
[25] = molecular target: T1, Histone deacetylase (Homo sapiens); assay: Inhibition of HDAC in human Cal27CisR cells assessed as combination index at 0.1 uM measured in presence of 50 uM cDDP by MTT-based Chou-Talalay method; type: cell-based
[26] = molecular target: T1, Histone deacetylase (Homo sapiens); assay: Inhibition of HDAC in human Cal27CisR cells assessed as combination index at 0.1 uM measured in presence of 20 uM cDDP by MTT-based Chou-Talalay method; type: cell-based
[27] = Inhibition of Class 1/2b HDAC in human HL-60 cells by HDAC-Glo assay; type: cell-based
[28] = molecular target: T1, Histone deacetylase (Homo sapiens); assay: Inhibition of HDAC in human Cal27CisR cells assessed as combination index at 0.3 uM measured in presence of 50 uM cDDP by MTT-based Chou-Talalay method; type: cell-based
[29] = molecular target: T1, Histone deacetylase (Homo sapiens); assay: Inhibition of HDAC in human CAL-27 cells assessed as combination index at 0.3 uM measured in presence of 5 uM cDDP by MTT-based Chou-Talalay method; type: cell-based

Row | SMILES | CI [1] | CI [2] | CI [3] | CI [4] | CI [5] | CI [6] | CI [7] | Activity (CAL-27 [8]) | IC50 (HL-60) [nM] | Activity (Cal27CisR) | CI [9] | CI [10] | CI [11] | CI [12] | CI [13] | CI [14] | IC50 (Histone deacetylase [15]) [nM] | Ratio IC50 [16] | IC50 (A2780) [nM] | IC50 (CAL-27 [24]) [nM] | other results
1 | O=C(CCCCCONC(=O)c1ccc2ccccc2n1)NO | 0.37 | 0.02 | 0.68 | 0.05 | 0.33 | 0.94 | 0.47 | Active | 270 | Active | 0.5 | 0.16 | 0.04 | 0.27 | 0.55 | 1.11 | 1120 | 13.2 | 800 | 250 | CI [17]: 0.02; CI [18]: 0.02; CI [19]: 0.22; IC50 (Histone deacetylase [20]): 3670 nM; Activity (CAL-27 [21]): Active; CI [22]: 0.1; CI [23]: 0.11; CI [25]: 0.32; CI [26]: 5.25; IC50 [27]: 73.2 nM; CI [28]: 0.44; CI [29]: 0.06
2 | O=C(CCCCCONC(=O)c1cc2ccccc2[nH]1)NO | 0.29 | 0.02 | 0.21 | 0.05 | 0.21 | 0.11 | 0.47 | Active |  | Active | 0.47 | 1.17 | 0.04 | 2.72 | 0.43 | 0.09 | 1310 | 7.36 | 4050 | 300 | CI [17]: 0.02; CI [18]: 0.02; CI [19]: 0.22; IC50 (Histone deacetylase [20]): 6590 nM; Activity (CAL-27 [21]): Active; CI [22]: 0.19; CI [23]: 0.59; CI [25]: 0.36; CI [26]: 2.3; CI [28]: 0.47; CI [29]: 0.06
3 | O=C(CCCCCONC(=O)c1nccc2ccccc12)NO |  |  |  |  |  |  |  |  | 561 |  |  |  |  |  |  |  |  |  | 19900 | 2120 | IC50 [27]: 85.1 nM
